Drawing on US9376418B2, “Substituted pyridine spleen tyrosine kinase (SYK) inhibitors” (Merck Sharp & Dohme Corp., priority 2012, dated 2016), this text covers IC50 for 33 compounds.

A value given as a limit tells only on which side of the number the result lay.

The target of this assay is T1, recombinant human GST-SYK (Homo sapiens, UniProt P43405).
T1 construct: purchased Carna Biosciences 08-176
As to the kind of experiment: Homogeneous Time-Resolved Fluorescence (HTRF) assay for the recombinant human Syk enzyme. Type of assay: biochemical. The conditions noted are these: HTRF assay, recombinant human GST-SYK; IC50 given as class symbols; read-out: rhSYK Activity. In short, it runs like this:
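HTRF read-out: Europium-anti-phosphotyrosine antibody (2 nM) plus SA-APC (70 nM) in EDTA-containing buffer quenched the reaction, and signal was read after 30 minutes. Kinase step used […], 250 nM biotinylated peptide, 25 μM ATP, 5 mM Mg, 45′ at room temperature.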
A general note: In TR-FRET formats the signal depends on donor and acceptor labels being close together.
Take `Cc1cc(Nc2nccc(C)n2)cc(-c2ccc(CCC(=O)O)cn2)c1` [Example 2.34, 3-(6-{3-methyl-5-[(4-methylpyrimidin-2-yl)amino]phenyl}pyridin-3-yl)propanoic acid]: the IC50 was 0.1 to 1 µM. As to `Cc1cc(Nc2nccc(C(F)(F)F)n2)cc(-c2ccnc(N3CC4CNC(CO)C4C3)c2)c1` (stereo not drawn) [Example 15.84, {5-[4-(3-methyl-5-{[4-(trifluoromethyl)pyrimidin-2-yl]amino}phenyl)pyridin-2-yl]octahydropyrrolo[3,4-c]pyrrol-1-yl}methanol], the IC50 lay within 1 to 10 µM. As for `Cc1cc(Nc2nccc(C(F)(F)F)n2)cc(-c2ccc(C(=O)N3CCNC(=O)C3)nc2)c1` [Example 16.4, 4-{[5-(3-Methyl-5-{[4-(trifluoromethyl)pyrimidin-2-yl]amino}phenyl)pyridin-2-yl]carbonyl}piperazin-2-one], the IC50 was under 0.1 µM.

On to `Cc1cc(Nc2nccc(C(F)(F)F)n2)cc(-c2ccc(CNC(N)=O)nc2)c1` [Example 17.2, 1-{[5-(3-methyl-5-{[4-(trifluoromethyl)pyrimidin-2-yl]amino}phenyl)pyridin-2-yl]methyl}urea], for which the IC50 is under 0.1 µM. Turning to `Cc1cc(Nc2nccc(C3CC3)n2)cc(-c2ccc(CCC(=O)O)nc2)c1` [Example 2.101, 3-(5-{3-[(4-cyclopropylpyrimidin-2-yl)amino]-5-methylphenyl}pyridin-2-yl)propanoic acid], the IC50 is under 0.1 µM. Then `Cc1cc(Nc2nccc(C(F)(F)F)n2)cc(-c2ccnc(N3CCNC(=O)C3)c2)c1` [Example 15.44, 4-[4-(3-methyl-5-{[4-(trifluoromethyl)pyrimidin-2-yl]amino}phenyl)pyridin-2-yl]piperazin-2-one], with under 0.1 µM; and `O=C1NCCC1Nc1ccc(-c2cccc(Nc3nccc(C(F)(F)F)n3)c2)cn1` (stereo not drawn) [Example 7.124, 3-{[5-(3-{[4-(trifluoromethyl)pyrimidin-2-yl]amino}phenyl)pyridin-2-yl]amino}pyrrolidin-2-one], with under 0.1 µM; and `Cc1cc(Nc2nccc(C(F)(F)F)n2)cc(-c2ccc(NC3CCNC3=O)nc2)c1` (stereo not drawn) [Example 7.68, 3-{[5-(3-methyl-5-{[4-(trifluoromethyl)pyrimidin-2-yl]amino}phenyl)pyridin-2-yl]amino}pyrrolidin-2-one], with under 0.1 µM. Then `Cc1cc(Nc2nccc(C(F)(F)F)n2)cc(-c2cncc(C(C)(O)C(C)O)c2)c1` (stereo not drawn) [Example 9.73, 2-[5-(3-methyl-5-{[4-(trifluoromethyl)pyrimidin-2-yl]amino}phenyl)pyridin-3-yl]butane-2,3-diol], with under 0.1 µM.

Regarding `Cc1cc(Nc2nccc(C(F)(F)F)n2)cc(-c2ccc(C3(O)CCC(C(=O)O)C(C)(C)C3)nc2)c1` (single isomer, unassigned) [Example 9.8, (1S,4R or 1R,4S)-4-hydroxy-2,2-dimethyl-4-[5-(3-methyl-5-{[4-(trifluoromethyl)pyrimidin-2-yl]amino}phenyl)pyridin-2-yl]cyclohexanecarboxylic acid], the IC50 was under 0.1 µM. Then `Cc1cc(Nc2nccc(C(F)(F)F)n2)cc(-c2ccc(C(=O)NC3CCS(=O)(=O)C3)nc2)c1` (stereo not drawn) [Example 16.54, N-(1,1-dioxidotetrahydrothiophen-3-yl)-5-(3-methyl-5-{[4-(trifluoromethyl)pyrimidin-2-yl]amino}phenyl)pyridine-2-carboxamide], with under 0.1 µM; and `Cc1cc(Nc2nccc(C(F)(F)F)n2)cc(-c2ccnc(C3(O)CCC(=O)CC3)c2)c1` [Example 9.2, 4-Hydroxy-4-[4-(3-methyl-5-{[4-(trifluoromethyl)pyrimidin-2-yl]amino}phenyl)pyridin-2-yl]cyclohexanone], with under 0.1 µM; and `Cc1cc(Nc2nccc(C(F)(F)F)n2)cc(-c2ccc(C(NC(N)=O)(C3CC3)C3CC3)nc2)c1` [Example 19.1, 1-{Dicyclopropyl[5-(3-methyl-5-{[4-(trifluoromethyl)pyrimidin-2-yl]amino}phenyl)pyridin-2-yl]methyl}urea], with under 0.1 µM.

`Cc1cc(Nc2nccc(C(F)(F)F)n2)cc(-c2ccc(C(=O)NC(C)(C)CO)nc2)c1` [Example 16.11, N-(2-hydroxy-1,1-dimethylethyl)-5-(3-methyl-5-{[4-(trifluoromethyl)pyrimidin-2-yl]amino}phenyl)pyridine-2-carboxamide]: the IC50 lay in the range of 0.1 to 1 µM.

With `Cc1cc(Nc2nccc(C(F)(F)F)n2)cc(-c2ccc(N3CCNC(=O)CC3)nc2)c1` [Example 7.27, 1-[5-(3-methyl-5-{[4-(trifluoromethyl)pyrimidin-2-yl]amino}phenyl)pyridin-2-yl]-1,4-diazepan-5-one], the IC50 is under 0.1 µM.

Regarding `Cc1cc(Nc2nccc(C(F)(F)F)n2)cc(-c2ccc(N3CCCC4(CCOC4=O)C3)nc2)c1` (stereo not drawn) [Example 7.14, 7-[5-(3-methyl-5-{[4-(trifluoromethyl)pyrimidin-2-yl]amino}phenyl)pyridin-2-yl]-2-oxa-7-azaspiro[4.5]decan-1-one], the IC50 lay within 0.1 to 1 µM. In the case of `FC(F)(F)c1ccnc(Nc2cc(-c3ccccn3)cc(N3CCOCC3)c2)n1` [Example 1.2, N-(3-morpholin-4-yl-5-pyridin-2-ylphenyl)-4-(trifluoromethyl)pyrimidin-2-amine], the IC50 is under 0.1 µM. The same measure for `Cc1cc(Nc2nccc(C(F)(F)F)n2)cc(-c2ccnc(NCCC(N)=O)c2)c1` [Example 15.59, N~3~-[4-(3-methyl-5-{[4-(trifluoromethyl)pyrimidin-2-yl]amino}phenyl)pyridin-2-yl]-beta-alaninamide]: under 0.1 µM; for `Cc1cc(Nc2nccc(C(F)(F)F)n2)cc(-c2ccc(NC3(C(=O)O)CCNCC3)nc2)c1` [Example 7.72, 4-{[5-(3-methyl-5-{[4-(trifluoromethyl)pyrimidin-2-yl]amino}phenyl)pyridin-2-yl]amino}piperidine-4-carboxylic acid]: under 0.1 µM; for `O=C(O)c1cccc(-c2cccc(Nc3nccc(C(F)(F)F)n3)c2)n1` [Example 2.12, 6-(3-{[4-(trifluoromethyl)pyrimidin-2-yl]amino}phenyl)pyridine-2-carboxylic acid]: 0.1 to 1 µM. Take `COCCNc1cncc(-c2cc(C)cc(Nc3nccc(C(F)(F)F)n3)c2)c1` [Example 15.1, N-(3-{5-[(2-Methoxyethyl)amino]pyridin-3-yl}-5-methylphenyl)-4-(trifluoromethyl)pyrimidin-2-amine]: the IC50 was under 0.1 µM. For the compound `Cc1cc(Nc2nccc(C(F)(F)F)n2)cc(-c2ccc(C(N)=O)nc2)c1` [Example 12.6, 5-(3-methyl-5-{[4-(trifluoromethyl)pyrimidin-2-yl]amino}phenyl)pyridine-2-carboxamide], the IC50 was under 0.1 µM. Then `Cc1cc(Nc2nccc(C(F)(F)F)n2)cc(-c2ccc(NC3(C(=O)O)CCCC3)nc2)c1` [Example 7.80, 1-{[5-(3-methyl-5-{[4-(trifluoromethyl)pyrimidin-2-yl]amino}phenyl)pyridin-2-yl]amino}cyclopentanecarboxylic acid], with under 0.1 µM; and `CCCCOC(=O)C1CCC(C(C)(O)c2ccc(-c3cc(C)cc(Nc4nccc(OC)n4)c3)cn2)CC1` (single isomer, unassigned) [Example 9.50, butyl trans-4-[(1R or 1S)-1-hydroxy-1-(5-{3-[(4-methoxypyrimidin-2-yl)amino]-5-methylphenyl}pyridin-2-yl)ethyl]cyclohexanecarboxylate], with 0.1 to 1 µM.

For the compound `Cc1cc(Nc2nccc(C)n2)cc(-c2cncc(CCC(=O)O)c2)c1` [Example 2.90, 3-(5-{3-methyl-5-[(4-methylpyrimidin-2-yl)amino]phenyl}pyridin-3-yl)propanoic acid], the IC50 was in the range of 0.1 to 1 µM. Consider `CCOC(=O)CCc1cc(-c2cc(C)cc(Nc3nccc(C)n3)c2)ccn1` [Example 2.134, ethyl 3-(4-{3-methyl-5-[(4-methylpyrimidin-2-yl)amino]phenyl}pyridin-2-yl)propanoate], for which the IC50 is 0.1 to 1 µM.

Turning to `Cc1cc(Nc2nccc(C)n2)cc(-c2ccc(CCC(=O)O)nc2)c1` [Example 2.89, 3-(5-{3-methyl-5-[(4-methylpyrimidin-2-yl)amino]phenyl}pyridin-2-yl)propanoic acid], the IC50 is under 0.1 µM. The same measure for `Cc1cc(Nc2nccc(C(F)(F)F)n2)cc(-c2ccnc(N3CCCC(F)(F)C3)c2)c1` [Example 15.68, N-{3-[2-(3,3-difluoropiperidin-1-yl)pyridin-4-yl]-5-methylphenyl}-4-(trifluoromethyl)pyrimidin-2-amine]: 0.1 to 1 µM; for `COC(=O)c1cncc(-c2cc(C)cc(Nc3nccc(C(F)(F)F)n3)c2)c1` [Example 2.53, methyl 5-(3-methyl-5-{[4-(trifluoromethyl)pyrimidin-2-yl]amino}phenyl)pyridine-3-carboxylate]: 0.1 to 1 µM.

On to `Cc1cc(Nc2nccc(C(F)(F)F)n2)cc(-c2ccc(NC(C)(C)C(=O)O)nc2)c1` [Example 7.7, 2-methyl-N-[5-(3-methyl-5-{[4-(trifluoromethyl)pyrimidin-2-yl]amino}phenyl)pyridin-2-yl]alanine], for which the IC50 was under 0.1 µM.

In the case of `Cc1cc(Nc2nccc(C(F)(F)F)n2)cc(-c2cncc(NCc3ccc[nH]c3=O)c2)c1` [Example 15.21, 3-({[5-(3-methyl-5-{[4-(trifluoromethyl)pyrimidin-2-yl]amino}phenyl)pyridin-3-yl]amino}methyl)pyridin-2(1H)-one], the IC50 is under 0.1 µM. As to `Cc1cc(Nc2nccc(C(F)(F)F)n2)cc(-c2ccc(C(=O)N3CCn4ccnc4C3)nc2)c1` [Example 16.32, N-{3-[6-(5,6-dihydroimidazo[1,2-a]pyrazin-7(8H)-ylcarbonyl)pyridin-3-yl]-5-methylphenyl}-4-(trifluoromethyl)pyrimidin-2-amine], the IC50 was under 0.1 µM. The same measure for `Cc1ccnc(Nc2cccc(-c3ccc(N[C@H]4CC[C@H](C(=O)O)CC4)nc3)c2)n1` [Example 2.107, trans-4-[(5-{3-[(4-methylpyrimidin-2-yl)amino]phenyl}pyridin-2-yl)amino]cyclohexanecarboxylic acid]: under 0.1 µM.
